The values below come from ChEMBL document CHEMBL1201862, “PubChem BioAssay data set” (2004).

The source made the active and inactive calls.

Test [1] addresses T1, DNA repair protein RAD52 homolog (Homo sapiens, UniProt P43351).
T1 sequence (P43351 whole entry): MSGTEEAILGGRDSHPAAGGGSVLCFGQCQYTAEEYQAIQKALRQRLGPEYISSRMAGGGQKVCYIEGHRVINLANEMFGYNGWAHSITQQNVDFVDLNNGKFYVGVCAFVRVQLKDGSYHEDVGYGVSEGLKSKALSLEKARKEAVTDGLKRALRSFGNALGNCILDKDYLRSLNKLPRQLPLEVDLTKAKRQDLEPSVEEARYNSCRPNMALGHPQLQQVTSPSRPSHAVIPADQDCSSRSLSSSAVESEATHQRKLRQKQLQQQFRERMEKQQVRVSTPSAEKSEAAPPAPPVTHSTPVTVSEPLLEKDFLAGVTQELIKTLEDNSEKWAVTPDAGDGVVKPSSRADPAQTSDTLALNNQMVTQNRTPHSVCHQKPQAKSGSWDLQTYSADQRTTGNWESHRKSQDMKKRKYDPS
The test is classed as functional, biochemical.

For another test, the target named is T2, Protein Tat (Human immunodeficiency virus type 1 group M subtype B (isolate HXB2)(HIV-1), UniProt P04608).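 Also: tat binding to TAR RNA read out by fluorescence polarization.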
T2 sequence (P04608 whole entry): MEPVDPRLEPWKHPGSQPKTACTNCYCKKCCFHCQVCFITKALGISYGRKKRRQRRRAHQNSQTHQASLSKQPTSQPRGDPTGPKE
The test is classed as functional.

The target of test [2] is Glutathione-S-transferase (Schistosoma japonicum, UniProt Q26513). As to the kind of experiment: GST-antibody interaction or FRET quenching – biochemical, TR-FRET, artefact control for Vif-APOBEC3G degradation inhibitor project, dose response (AID 1117362). The test is classed as functional.
The target of test [3] is T3, Rac GTPase-activating protein 1 (Homo sapiens, UniProt Q9H0H5).
T3 sequence (Q9H0H5 whole entry): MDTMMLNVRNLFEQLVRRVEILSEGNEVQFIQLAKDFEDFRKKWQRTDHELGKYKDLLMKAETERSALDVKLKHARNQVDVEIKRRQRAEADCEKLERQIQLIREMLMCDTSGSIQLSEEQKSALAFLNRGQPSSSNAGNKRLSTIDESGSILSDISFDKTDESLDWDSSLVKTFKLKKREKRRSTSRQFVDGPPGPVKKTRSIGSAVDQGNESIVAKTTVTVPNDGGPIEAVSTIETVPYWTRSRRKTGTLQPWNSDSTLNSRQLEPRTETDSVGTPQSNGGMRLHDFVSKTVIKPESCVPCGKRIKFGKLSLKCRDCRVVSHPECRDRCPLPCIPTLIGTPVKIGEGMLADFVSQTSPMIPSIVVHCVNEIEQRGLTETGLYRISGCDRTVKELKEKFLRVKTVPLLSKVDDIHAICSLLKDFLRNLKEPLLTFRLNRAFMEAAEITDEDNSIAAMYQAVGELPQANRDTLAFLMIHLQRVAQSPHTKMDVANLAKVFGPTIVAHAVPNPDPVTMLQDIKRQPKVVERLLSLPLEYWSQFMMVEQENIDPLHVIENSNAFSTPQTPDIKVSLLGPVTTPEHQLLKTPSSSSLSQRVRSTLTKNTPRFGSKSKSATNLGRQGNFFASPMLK
As to the kind of experiment: blockers of MgcRacGAP-driven Rac1 GTP hydrolysis – biochemical, ADP Hunter fluorescence, primary and confirmatory, confirmation (AID 624330). The test is classed as functional.

Test [4] addresses T4, Fibrinogen beta chain (Homo sapiens, UniProt P02675). As to the kind of experiment: Fluorescence polarization-based biochemical high throughput dose response assay to identify inhibitors that disrupt the binding of a cyclic peptide (Tn7) to the fibrin proteolytic product D-Dimer and fragment E complex [DD(E )].
The target in test [5] is Matrix metalloproteinase-14 (Homo sapiens, UniProt P50281). As to the kind of experiment: Dose Response confirmation of uHTS hits for a small molecule inhibitors of MT1-MMP activation in a fluorescence assay set 1. The test is classed as functional.
In test [6] the target is T5, Histone-lysine N-methyltransferase NSD2 (Homo sapiens, UniProt O96028).
T5 sequence (O96028 whole entry): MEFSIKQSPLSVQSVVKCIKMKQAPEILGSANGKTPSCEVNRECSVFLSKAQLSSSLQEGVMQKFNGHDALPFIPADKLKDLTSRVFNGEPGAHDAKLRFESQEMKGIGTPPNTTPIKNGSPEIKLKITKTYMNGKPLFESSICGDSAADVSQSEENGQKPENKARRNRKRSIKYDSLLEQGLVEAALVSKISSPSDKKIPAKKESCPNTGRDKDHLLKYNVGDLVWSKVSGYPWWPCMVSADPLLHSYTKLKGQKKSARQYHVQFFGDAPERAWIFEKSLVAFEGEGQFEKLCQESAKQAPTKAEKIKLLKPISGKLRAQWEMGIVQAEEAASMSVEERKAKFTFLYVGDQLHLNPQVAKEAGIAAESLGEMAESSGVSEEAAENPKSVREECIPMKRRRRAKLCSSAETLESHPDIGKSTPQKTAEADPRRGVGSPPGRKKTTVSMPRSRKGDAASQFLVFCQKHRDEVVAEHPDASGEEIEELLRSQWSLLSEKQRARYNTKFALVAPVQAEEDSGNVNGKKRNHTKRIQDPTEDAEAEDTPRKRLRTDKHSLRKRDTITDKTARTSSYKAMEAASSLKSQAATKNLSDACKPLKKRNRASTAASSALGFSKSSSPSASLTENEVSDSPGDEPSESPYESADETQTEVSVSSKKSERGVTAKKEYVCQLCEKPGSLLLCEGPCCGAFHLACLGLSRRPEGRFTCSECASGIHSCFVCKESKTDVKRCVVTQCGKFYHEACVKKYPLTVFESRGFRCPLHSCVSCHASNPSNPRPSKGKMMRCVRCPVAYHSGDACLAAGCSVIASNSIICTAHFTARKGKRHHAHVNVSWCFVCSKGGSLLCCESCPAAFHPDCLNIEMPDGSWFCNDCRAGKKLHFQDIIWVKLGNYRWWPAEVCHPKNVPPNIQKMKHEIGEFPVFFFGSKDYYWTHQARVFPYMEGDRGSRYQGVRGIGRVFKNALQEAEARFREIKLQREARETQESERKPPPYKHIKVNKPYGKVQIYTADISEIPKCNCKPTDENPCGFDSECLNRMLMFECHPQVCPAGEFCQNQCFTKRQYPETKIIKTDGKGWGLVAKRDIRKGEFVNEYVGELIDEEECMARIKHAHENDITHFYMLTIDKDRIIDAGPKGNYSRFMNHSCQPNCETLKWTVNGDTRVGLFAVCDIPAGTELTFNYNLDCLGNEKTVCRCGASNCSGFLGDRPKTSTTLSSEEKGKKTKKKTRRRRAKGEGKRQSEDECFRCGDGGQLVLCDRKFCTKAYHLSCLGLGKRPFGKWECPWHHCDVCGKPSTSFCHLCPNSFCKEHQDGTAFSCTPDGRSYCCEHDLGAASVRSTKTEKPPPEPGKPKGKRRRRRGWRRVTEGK
The test is classed as biochemical.

The target of test [7] is T4, Fibrinogen beta chain. As to the kind of experiment: Fluorescence polarization-based biochemical high throughput dose response assay to identify inhibitors that disrupt the binding of a cyclic peptide (Tn6) to the fibrin proteolytic product D-Dimer and fragment E complex [DD(E )].
A short description of test [8]: viability loss in HeLa cells – cytotoxicity control for MgcRacGAP inhibitor project, dose response (AID 624300). The test is classed as functional.
Another test deals with Nonstructural protein 1 (Influenza A virus, UniProt Q194T2). The test is classed as functional, Influenza A virus (A/California/07/2009(H1N1)).
A further test has as its target Paired box protein Pax-8 (Homo sapiens, UniProt Q06710). As to the kind of experiment: PAX8 transcriptional activity inhibition in RMG-I – RMG-I cells, luciferase, cherry-pick, dose response (AID 687027).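 Also: luciferase reporter driven by Pax8 target thyroperoxidase promoter measured by SteadyGlo luminescence.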 The test is classed as functional, cell-based.
Test [9] can be described thus: COV434 cell viability loss – plate reader, dry powder, SA7, cytotoxicity control for PAX8 inhibitor project, dose response (AID 743145). The test is classed as functional, cell-based.
Test [10] can be described thus: OVCAR-3 cell viability loss – plate reader, dry powder samples, PAX8 inhibitor project, dose response (AID 743044). The test is classed as functional, cell-based.
A short description of test [11]: PAX5 cellular inhibition readout – cell-based, plate reader, dry powder samples, selectivity assay for PAX8 inhibitor project, dose response (AID 743047).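 Also: HEK293 cells carrying a Pax5 driven CD19 promoter luciferase reporter; potency of inhibitors that lower reporter luminescence.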 The test is classed as functional.
A short description of test [12]: OVCAR8 cell viability loss – plate reader, dry powder samples, PAX8 project, dose response (AID 743197). The test is classed as functional, cell-based. As to conditions: OVCAR-8.
Test [13] in a line: inhibitors acting on PAX2 in cells – cell-based, plate reader, dry powder samples, selectivity assay for PAX8 inhibitor project, dose response (AID 743048).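 Also: HEK293 cells carrying a WT1 promoter luciferase reporter driven by expressed Pax2; potency is for inhibition of Pax2 driven reporter signal.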 The test is classed as functional.
A short description of test [14]: COV362 cell viability loss – plate reader, dry powder, SA12, cytotoxicity control for PAX8 inhibitor project, dose response (AID 743144). The test is classed as functional, cell-based.
Test [15] can be described thus: PAX8-dependent cell viability loss – plate reader, dry powder, dose response (AID 743049). The test is classed as functional, cell-based.
A short description of test [16]: OV-90 cell viability loss – plate reader, dry powder, SA8, PAX8 inhibitor project, dose response (AID 743149). The test is classed as functional, cell-based.
Test [17] is described as follows: OVCAR4 cell viability loss – plate reader, dry powder, SA11, cytotoxicity control for PAX8 inhibitor project, dose response (AID 743150). The test is classed as functional, cell-based. Conditions: OVCAR-4.

T4 sequence (P02675 whole entry, the tested form may be a part): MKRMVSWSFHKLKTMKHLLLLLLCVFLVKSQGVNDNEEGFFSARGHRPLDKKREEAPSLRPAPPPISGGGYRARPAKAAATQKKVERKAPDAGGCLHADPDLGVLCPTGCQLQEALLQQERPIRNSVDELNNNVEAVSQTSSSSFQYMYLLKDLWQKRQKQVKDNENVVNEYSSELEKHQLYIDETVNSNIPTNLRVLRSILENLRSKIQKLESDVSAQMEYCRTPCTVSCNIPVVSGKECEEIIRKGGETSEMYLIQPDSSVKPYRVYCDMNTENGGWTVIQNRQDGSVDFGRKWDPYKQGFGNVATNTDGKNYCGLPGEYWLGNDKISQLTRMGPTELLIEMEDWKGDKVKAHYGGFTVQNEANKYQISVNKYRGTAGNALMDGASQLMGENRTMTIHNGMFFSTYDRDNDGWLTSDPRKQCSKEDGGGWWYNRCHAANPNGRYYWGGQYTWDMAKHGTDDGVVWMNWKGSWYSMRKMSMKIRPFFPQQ
Chain of Glutathione-S-transferase (Q26513 whole entry): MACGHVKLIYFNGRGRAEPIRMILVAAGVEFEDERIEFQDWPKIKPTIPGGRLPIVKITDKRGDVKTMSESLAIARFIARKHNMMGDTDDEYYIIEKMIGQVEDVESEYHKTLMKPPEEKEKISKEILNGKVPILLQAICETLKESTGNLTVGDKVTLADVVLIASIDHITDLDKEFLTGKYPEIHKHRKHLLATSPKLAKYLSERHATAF
Chain of Nonstructural protein 1 (Q194T2 whole entry): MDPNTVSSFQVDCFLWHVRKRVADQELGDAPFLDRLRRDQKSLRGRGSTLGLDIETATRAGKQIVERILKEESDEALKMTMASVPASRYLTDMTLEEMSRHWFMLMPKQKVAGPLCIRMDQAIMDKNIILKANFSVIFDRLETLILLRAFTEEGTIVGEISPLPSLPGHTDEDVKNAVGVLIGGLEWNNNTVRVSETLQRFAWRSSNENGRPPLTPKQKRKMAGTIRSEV
Chain of Paired box protein Pax-8 (Q06710 whole entry): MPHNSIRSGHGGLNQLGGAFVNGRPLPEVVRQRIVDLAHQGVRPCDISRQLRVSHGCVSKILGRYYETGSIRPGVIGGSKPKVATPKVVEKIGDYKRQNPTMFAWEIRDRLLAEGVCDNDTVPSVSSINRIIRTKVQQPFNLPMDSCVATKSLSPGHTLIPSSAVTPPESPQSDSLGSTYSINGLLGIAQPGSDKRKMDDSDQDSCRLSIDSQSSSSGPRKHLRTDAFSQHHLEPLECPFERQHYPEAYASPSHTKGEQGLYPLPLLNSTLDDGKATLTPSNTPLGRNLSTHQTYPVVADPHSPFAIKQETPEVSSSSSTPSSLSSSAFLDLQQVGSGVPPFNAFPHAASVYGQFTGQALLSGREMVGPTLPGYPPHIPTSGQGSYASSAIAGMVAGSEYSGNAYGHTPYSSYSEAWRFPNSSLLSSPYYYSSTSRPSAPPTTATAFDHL

Regarding `Nc1ccc(N2CCN(CCCCN3C(=O)C4CCCN4C3=O)CC2)cc1` (stereo unspecified), the AC50 in [1] is 1.29 µM (active). For the same molecule, the IC50 on Protein Tat is > 100 µM (active); in test [2], 3.15 µM (active).
Take `O=C1c2cccc(NCCCNCCO)c2C(=O)c2cccc(NCCCNCCO)c21`: the IC50 in [3] is 27.8 µM (active); at Fibrinogen beta chain [4], > 83.3 µM (inactive); in test [5] it was 38 µM (inactive); on Fibrinogen beta chain [7], 9.1 µM (active); on Nonstructural protein 1, 10.1 µM (active). The values for the AC50 in test [1] and in [6] were < 0.15 µM (active) and 3.53 µM (active), respectively. Besides, the CC50 in [8] was 25.6 µM (active).
Turning to `N#C[C@H]1[C@@H](c2ccc(C#Cc3ccc(F)cc3)cc2)[C@H](CO)N1C(=O)C1CCCC1`, the concentration at half-maximal activity (AC50) is 13.4 µM (active) on Paired box protein Pax-8; 26.2 µM (active) in test [9]; 34.5 µM (active) in test [10]; 8.42 µM (active) in [11]; > 70 µM (inactive) in [12]; 9.19 µM (active) in test [13]. In addition, the AC50 in [14] is 33.3 µM (active); in test [15] it was 18.6 µM (active); in test [16], 26.5 µM (active); in test [17], > 70 µM (inactive).
